How the values were obtained:
[1] = Light fastness test (retention of dye after 2 hours of high-pressure mercury lamp irradiation); type: physicochemical; conditions: 1 mg in 250 mL, 2 hours irradiation
Method: The light fastness of each dye was examined in the following manner. One milligram of each dye was dissolved in 250 mL of each of n-decane, tetradecane, Isopar M, and Isopar G, and the solution was irradiated with light for 2 hours using photoreaction apparatus UVL-400HA (400-W high-pressure mercury lamp), manufactured by Riko-Kagaku Sangyo Co., Ltd. During the irradiation, the vessel was cooled with a coolant to keep the internal temperature at 10-30° C. The retention of the dye was determined through the following calculation to evaluate the light fastness. Retention of dye=(absorbance at absorption-maximum wavelength after irradiation)/(absorbance at absorption-maximum wavelength before irradiation)

[2] = Solubility test in low-polarity solvents (saturated solution, λmax, solubility, εC); type: physicochemical; conditions: for Solubility: saturated solution
Method: The solubility of each dye in n-decane, tetradecane, Isopar M, Isopar G, and decalin was examined in the following manner. Each dye was added to each solvent until a dissolution residue came to remain, and this mixture was subjected to a 30-minute ultrasonic treatment at 30 degrees. The resultant mixture was allowed to stand at 5° C. for 24 hours and then subjected to centrifugal filtration (centrifugal force, 5,200×g) with a 0.1-μm filter using a microcentrifuge. The saturated solution obtained was diluted to an adequate concentration, and the solubility of each dye was calculated from a relationship with an extinction coefficient determined beforehand. Furthermore, the value of the product of the molar extinction coefficient ε (Lmol^−1cm^−1) and the concentration C (molL^−1) of the saturated solution, εC, was determined.
Sudan Black B (manufactured by Tokyo Kasei Kogyo Co., Ltd.), which is a commercial oil-soluble black dye, was added to n-decane until a dissolution residue came to remain, and this mixture was subjected to a 30-minute ultrasonic treatment at 30 degrees. The resultant mixture was allowed to stand at 5° C. for 24 hours and then subjected to centrifugal filtration (centrifugal force, 5,200×g) with a 0.1-μm filter using a microcentrifuge. The saturated n-decane solution obtained was diluted to an adequate concentration, and the solubility of the dye was calculated from a relationship with an extinction coefficient determined beforehand.

[3] = n-decane, 400-W high-pressure mercury lamp
[4] = n-decane, stood at 5° C. for 24 hours, 0.1-μm filter

## CCCCC(CC)CNc1ccc(NCC(CC)CCCC)c2c1C(=O)c1ccccc1C2=O (stereo not drawn) [Comparative dye 2, reference compound]
[1]; Isopar G
  Light fastness: retention of dye: 85%
[1]; Isopar M
  Light fastness: retention of dye: 90%
[1]; [3]
  Light fastness: retention of dye: 92%
[1]; tetradecane
  Light fastness: retention of dye: 99%
[2]; Isopar G
  εC: 1200 cm⁻¹
  Solubility: 4.3%
[2]; Isopar G solution
  λmax (absorption-maximum wavelength): 649 nm
[2]; Isopar M
  εC: 1000 cm⁻¹
  Solubility: 3.6%
[2]; Isopar M solution
  λmax (absorption-maximum wavelength): 650 nm
[2]; decalin
  εC: 3400 cm⁻¹
  Solubility: 9.98%
[2]; decalin solution
  λmax (absorption-maximum wavelength): 645 nm
[2]; each of the low-polarity solvents
  εC (in words): small value
[2]; low-polarity solvents
  λmax (in words): large value
[2]; n-decane
  εC (molar extinction coefficient × concentration of saturated solution): 2000 cm⁻¹
[2]; n-decane solution
  λmax (absorption-maximum wavelength): 652 nm
[2]; [4]
  Solubility: 6.6%
[2]; tetradecane
  εC: 1600 cm⁻¹
  Solubility: 5.7%
[2]; tetradecane solution
  λmax (absorption-maximum wavelength): 651 nm

## C=Cn1c(N=Nc2ccc(N(CCCC)CCCC)cc2NC(C)=O)nc(C#N)c1C#N [Comparative dye 3, reference compound]
[1]; [3]
  Light fastness: retention of dye: 76%
[2]; Isopar G
  εC: ≦10 cm^−1
  Solubility: ≦0.01%
[2]; Isopar M
  εC: ≦10 cm^−1
  Solubility: ≦0.01%
[2]; decalin
  εC: ≦10 cm^−1
  Solubility: ≦0.01%
[2]; decalin solution
  λmax (absorption-maximum wavelength): 520 nm
[2]; n-decane
  εC (molar extinction coefficient × concentration of saturated solution): ≦10 cm^−1
[2]; [4]
  Solubility: ≦0.01%
[2]; tetradecane
  εC: ≦10 cm^−1
  Solubility: ≦0.01%

## CCc1nsc(N=Nc2ccc(N(CC(C)C)CC(C)C)cc2NC(C)=O)c1C#N [Dye 1]
[1]; [3]
  Light fastness: retention of dye: 97%
[2]; n-decane
  εC (molar extinction coefficient × concentration of saturated solution): 1000 cm⁻¹
[2]; n-decane solution
  λmax (absorption-maximum wavelength): 538 nm
[2]; [4]
  Solubility: 1.1%

## CCCCC(CC)CN(CC(CC)CCCC)c1ccc(N=Nc2snc(C)c2C#N)c(NC(C)=O)c1 (stereo not drawn) [Dye 2]
[1]; Isopar G
  Light fastness: retention of dye: 100%
[1]; Isopar M
  Light fastness: retention of dye: 100%
[1]; [3]
  Light fastness: retention of dye: 97%
[1]; tetradecane
  Light fastness: retention of dye: 94%
[2]; Isopar G
  εC: 5000 cm⁻¹
  Solubility: 5.7%
[2]; Isopar G solution
  λmax (absorption-maximum wavelength): 542 nm
[2]; Isopar M
  εC: 4000 cm⁻¹
  Solubility: 4.32%
[2]; Isopar M solution
  λmax (absorption-maximum wavelength): 544 nm
[2]; decalin
  εC: 24000 cm⁻¹
  Solubility: 24.5%
[2]; decalin solution
  λmax (absorption-maximum wavelength): 547 nm
[2]; n-decane
  εC (molar extinction coefficient × concentration of saturated solution): 6600 cm⁻¹
[2]; n-decane solution
  λmax (absorption-maximum wavelength): 543 nm
[2]; [4]
  Solubility: 7.9%
[2]; tetradecane
  εC: 4900 cm⁻¹
  Solubility: 5.4%
[2]; tetradecane solution
  λmax (absorption-maximum wavelength): 545 nm

## CCCCC(CC)CN(CC(CC)CCCC)c1ccc(N=Nc2sc(C(=O)OCC)c(C)c2C(=O)OCC)c(NC(C)=O)c1 (stereo not drawn) [Dye 3]
[1]; [3]
  Light fastness: retention of dye: 92%
[2]; n-decane
  εC (molar extinction coefficient × concentration of saturated solution): 1300 cm⁻¹
[2]; n-decane solution
  λmax (absorption-maximum wavelength): 537 nm
[2]; [4]
  Solubility: 2.4%

## CCCCCCCCN(CC(CC)CCCC)c1ccc(/N=N/c2snc(C)c2C#N)c(C)c1 (stereo not drawn) [Dye 5]
[2]; n-decane
  εC (molar extinction coefficient × concentration of saturated solution): 1300 cm⁻¹
[2]; n-decane solution
  λmax (absorption-maximum wavelength): 523 nm
[2]; [4]
  Solubility: 2.1%

## CCCCC(CC)CN(CC(CC)CCCC)c1ccc(/N=N/c2sc(C(=O)OCC)c(C)c2C(=O)OCC)c(C)c1 (stereo not drawn) [Dye 6]
[2]; n-decane
  εC (molar extinction coefficient × concentration of saturated solution): 3200 cm⁻¹
[2]; n-decane solution
  λmax (absorption-maximum wavelength): 504 nm
[2]; [4]
  Solubility: 8.4%

## CCCCC(CC)CN(CC(CC)CCCC)c1ccc(/N=N/c2snc(C)c2C#N)c(CC)c1 (stereo not drawn) [Dye 8]
[2]; Isopar G
  εC: 3600 cm⁻¹
  Solubility: 5.17%
[2]; Isopar G solution
  λmax (absorption-maximum wavelength): 533 nm
[2]; Isopar M
  εC: 2500 cm⁻¹
  Solubility: 3.4%
[2]; Isopar M solution
  λmax (absorption-maximum wavelength): 534 nm
[2]; n-decane
  εC (molar extinction coefficient × concentration of saturated solution): 6500 cm⁻¹
[2]; n-decane solution
  λmax (absorption-maximum wavelength): 533 nm
[2]; [4]
  Solubility: 10%
[2]; tetradecane
  εC: 2800 cm⁻¹
  Solubility: 3.9%
[2]; tetradecane solution
  λmax (absorption-maximum wavelength): 534 nm

## CCCCC(CC)CN(CC(CC)CCCC)c1ccc(/N=N/c2snc(C)c2C#N)c(NC(=O)CC)c1 (stereo not drawn) [Dye 9]
[2]; Isopar G
  εC: 11500 cm⁻¹
  Solubility: 13.3%
[2]; Isopar G solution
  λmax (absorption-maximum wavelength): 543 nm
[2]; Isopar M
  εC: 8900 cm⁻¹
  Solubility: 9.8%
[2]; Isopar M solution
  λmax (absorption-maximum wavelength): 544 nm
[2]; decalin
  εC: 8500 cm⁻¹
  Solubility: 9.1%
[2]; decalin solution
  λmax (absorption-maximum wavelength): 547 nm
[2]; n-decane
  εC (molar extinction coefficient × concentration of saturated solution): 11000 cm⁻¹
[2]; n-decane solution
  λmax (absorption-maximum wavelength): 543 nm
[2]; [4]
  Solubility: 13%
[2]; tetradecane
  εC: 7400 cm⁻¹
  Solubility: 8.5%
[2]; tetradecane solution
  λmax (absorption-maximum wavelength): 544 nm

## CCCCC(CC)CN(CC)c1ccc(/N=N/c2snc(CC)c2C#N)c(NC(C)=O)c1 (stereo not drawn) [Dye 11]
[2]; n-decane
  εC (molar extinction coefficient × concentration of saturated solution): 4300 cm⁻¹
[2]; n-decane solution
  λmax (absorption-maximum wavelength): 535 nm
[2]; [4]
  Solubility: 4.2%

## CCCCc1nsc(/N=N/c2ccc(N(CC(C)C)CC(C)C)cc2NC(C)=O)c1C#N [Dye 12]
[2]; n-decane
  εC (molar extinction coefficient × concentration of saturated solution): 4100 cm⁻¹
[2]; n-decane solution
  λmax (absorption-maximum wavelength): 543 nm
[2]; [4]
  Solubility: 5.7%

## CCCCc1nsc(/N=N/c2ccc(N(CC(CC)CCCC)CC(CC)CCCC)cc2C)c1C#N (stereo not drawn) [Dye 13]
[2]; n-decane
  εC (molar extinction coefficient × concentration of saturated solution): 3700 cm⁻¹
[2]; n-decane solution
  λmax (absorption-maximum wavelength): 527 nm
[2]; [4]
  Solubility: 5.9%

## CCCCC(CC)CN(CC(CC)CCCC)c1ccc(/N=N/c2snc(C(C)C)c2C#N)c(C)c1 (stereo not drawn) [Dye 14]
[2]; n-decane
  εC (molar extinction coefficient × concentration of saturated solution): 2800 cm⁻¹
[2]; n-decane solution
  λmax (absorption-maximum wavelength): 527 nm
[2]; [4]
  Solubility: 4.8%

## CCCCC(CC)CN(CC(CC)CCCC)c1ccc(/N=N/c2snc(C)c2C#N)c(C(C)C)c1 (stereo not drawn) [Dye 15]
[2]; n-decane
  εC (molar extinction coefficient × concentration of saturated solution): 8300 cm⁻¹
[2]; n-decane solution
  λmax (absorption-maximum wavelength): 535 nm
[2]; [4]
  Solubility: 9.7%

## CCCCC(CC)CN(CC(CC)CCCC)c1cc(C)c(/N=N/c2snc(C)c2C#N)cc1OC (stereo not drawn) [Dye 16]
[2]; n-decane
  εC (molar extinction coefficient × concentration of saturated solution): 2300 cm⁻¹
[2]; n-decane solution
  λmax (absorption-maximum wavelength): 563 nm
[2]; [4]
  Solubility: 3.7%

## CCCCC(CC)CN(CC(CC)CCCC)c1ccc(/N=N/c2snc(C)c2C#N)cc1 (stereo not drawn) [Dye 17]
[2]; n-decane
  εC (molar extinction coefficient × concentration of saturated solution): 12000 cm⁻¹
[2]; n-decane solution
  λmax (absorption-maximum wavelength): 523 nm
[2]; [4]
  Solubility: 9.2%

## CCOC(=O)c1sc(/N=N/c2ccc(N(CC(C)C)CC(C)C)cc2C)c(C(=O)OCC)c1C [Dye 18]
[2]; n-decane
  εC (molar extinction coefficient × concentration of saturated solution): 1000 cm⁻¹
[2]; n-decane solution
  λmax (absorption-maximum wavelength): 498 nm
[2]; [4]
  Solubility: 1.7%

## CCCCC(CC)CN(CC(CC)CCCC)c1ccc(/N=N/c2sc(C(=O)OCC)c(C)c2C#N)c(CC)c1 (stereo not drawn) [Dye 20]
[2]; n-decane
  εC (molar extinction coefficient × concentration of saturated solution): 6000 cm⁻¹
[2]; n-decane solution
  λmax (absorption-maximum wavelength): 546 nm
[2]; [4]
  Solubility: 9.7%

From patent publication US8747537B2, “Ink containing heterocyclic azo dye, and dye for use in said ink” (Mitsubishi Chemical Corporation, priority 2010, dated 2014)
